Experimental data as given in PMC9031226, “Preclinical Therapeutic Assessment of a New Chemotherapeutics [Dichloro(4,4’-Bis(2,2,3,3-Tetrafluoropropoxy) Methyl)-2,2’-Bipryridine) Platinum] in an Orthotopic Patient-Derived Xenograft Model of Triple-Negative Breast Cancers” (Pharmaceutics, 2022).

Key:
SK-OV-3 = assay: MTT cell viability assay on SK-OV-3; format: cell-based, human; conditions: for IC50: SK-OV-3, MTT assay, 48 h
Description: Human cancer cell lines, including MDA-MB-231, MCF-7, COLO205 and SK-OV-3, used in this study were purchased from American Type Culture Collection (ATCC, Manassas, VA, USA). All cell cultures were maintained in a 5% CO2-containing incubator at 37 °C. Triple-negative breast cancer cell line MDA-MB-231 and estrogen receptor-positive breast cancer cells MCF-7 were cultured in Dulbecco’s Modified Eagle Medium/Nutrient Mixture F-12 medium (DMEM/F12, Thermo Fisher Scientific Inc., Waltham, MA, USA) supplemented with 1% HyClone Penicillin-Streptomycin 100X solution (Cytiva, Marlborough, MA, USA) and 10% (v/v) fetal bovine serum (Thermo Fisher Scientific Inc., Waltham, MA, USA). COLO205 colon cancer cells and SK-OV-3 ovarian cancer cells were cultured in Roswell Park Memorial Institute (RPMI) 1640 medium (Thermo Fisher Scientific Inc., Waltham, MA, USA) containing the same supplements as described above.
Cell viability was evaluated using MTT assay. […] A viable cell count was determined by adding MTT reagent (3-(4,5-Dimethyl-2-thiazolyl)-2,5-diphenyl-2H-tetrazolium bromide (MTT; SERVA, Heidelberg, Germany) at a concentration of 5 mg/mL in PBS followed by measurement of the absorbance at 570 nm for each well detected by μQuant™ universal microplate spectrophotometer (BioTek, Winowski, VT, USA). The assessment procedures were followed under the manufacturer’s instructions. The final results were represented as mean values in the same experimental group detected by a microplate reader.

MDA-MB-231 cells = assay: Cell cycle analysis (PI staining, flow cytometry); format: cell-based, human; conditions: 24 h; for DNA content in sub G1: without exposure 8.71%; for DNA content in S phase: without exposure 14.75%
Description: The pellet was collected and fixed in 99% ice-cold ethanol and then stored in a freezer at −20 °C for further processing of staining. To label DNA, those fixed cells were rapidly washed to remove the residual fixing agent, followed by staining with DNA intercalating agent propidium iodide solution (PI) for 30 min in the dark. The PI working solution contains 0.5% Triton X-100, 15 μg propidium iodide (PI; BioVision Inc., Milpitas, CA, USA) and 10 μg RNase A (Thermo Fisher Scientific Inc., Waltham, MA, USA) in 1 mL PBS. The measurement and acquisition of DNA content were conducted using FACSVerse^TM Flow Cytometer (BD, Franklin Lakes, NJ, USA). Cell cycle distribution in four phases (subG1, G1, S, G2/M) was gated and analyzed in Kaluza Analysis Software (Beckman Coulter Inc., Indianapolis, IN, USA).

[1] = PDX model: body and organ weight, CBC and blood biochemistry; format: in vivo; conditions: NSG mice
From the text: The procedures for the establishment of breast cancer-bearing xenograft models were modified from previous publications and approved by the Taipei Medical University (TMU) Institutional Animal Care and Use Committee (IACUC No. LAC- 2021-0546) and the Joint Institutional Review Board of Taipei Medical University (N201812005). Overall, 4- to 6-week-old NOD.Cg-PrkdcscidIl2rgtm1Wjl/SzJ (NSG) female mice purchased from BioLASCO Taiwan Co., Ltd. (Taipei, Taiwan) were housed in specific pathogen-free rooms with ad libitum feeding and 12 h light–dark cycle. Patient-derived TNBC tumors were microscopically considered for a hypervascular background and frequent mitosis features, and triple-negative results for estrogen receptor, progesterone receptor and human epidermal growth factor receptor 2 (HER2). After a week of acclimatization, patient-derived TNBC tumors dissected into 3 × 3 × 3 mm^3 were implanted using puncture needle in fat pads between the third and fourth mammary glands for each mouse. […] Tumor growth curves were generated by measuring tumor diameters and then calculating based on the same equation described above. Finally, the mice were sacrificed on day 23 after the first dose of treatments. Plasma, tumors and major organs (heart, liver, kidney, spleen and lung) were collected for toxicity assessment and metastasis evaluation. Whole blood harvested from sacrificed animals was collected in EDTA-containing or heparin-containing tubes for CBC and biochemical analysis. For biochemical analysis, whole blood was centrifuged under 2000× g for 5 min to separate plasma from blood cells and then plasma was kept and stored in a −20 °C fridge until further analysis. Concentrations of albumin, total protein, aspartate aminotransferase (AST), alanine aminotransferase (ALT) and creatinine (CREA) in plasma, numbers of red blood cells (RBC), platelets (PLT), white blood cells (WBC) and hemoglobin (HGB) concentration in EDTA-anticoagulated whole blood were determined by medical laboratory scientists in Taipei Medical University Hospital (Taipei, Taiwan).

[2] = system: patient-derived TNBC tumors; assay: Orthotopic patient-derived xenograft (PDX) model, tumor growth; format: in vivo; conditions: NSG mice
From the text: The procedures for the establishment of breast cancer-bearing xenograft models were modified from previous publications and approved by the Taipei Medical University (TMU) Institutional Animal Care and Use Committee (IACUC No. LAC- 2021-0546) and the Joint Institutional Review Board of Taipei Medical University (N201812005). Overall, 4- to 6-week-old NOD.Cg-PrkdcscidIl2rgtm1Wjl/SzJ (NSG) female mice purchased from BioLASCO Taiwan Co., Ltd. (Taipei, Taiwan) were housed in specific pathogen-free rooms with ad libitum feeding and 12 h light–dark cycle. Patient-derived TNBC tumors were microscopically considered for a hypervascular background and frequent mitosis features, and triple-negative results for estrogen receptor, progesterone receptor and human epidermal growth factor receptor 2 (HER2). After a week of acclimatization, patient-derived TNBC tumors dissected into 3 × 3 × 3 mm^3 were implanted using puncture needle in fat pads between the third and fourth mammary glands for each mouse.
Tumor growth curves were generated by measuring tumor diameters and then calculating based on the same equation described above. Finally, the mice were sacrificed on day 23 after the first dose of treatments. Plasma, tumors and major organs (heart, liver, kidney, spleen and lung) were collected for toxicity assessment and metastasis evaluation.

calf thymus DNA (ct-DNA) = assay: UV-Vis spectrum of DNA-drug complex; format: binding; conditions: 25 ng/μL ct-DNA, 40-640 μM, 6 h, 37 °C
Description: The binding of the platinum-based agent with calf thymus DNA (ct-DNA) was assessed using UV-visible spectroscopy. […] Absorption between the wavelengths of 220 nm and 500 nm was detected by measuring absorbance every 2 nm via Thermo Varioskan Flash microplate reader (Thermo Fisher Scientific Inc., Waltham, MA, USA). The maximal absorbance of DNA at 260 nm was marked to highlight the spectrum in pure DNA without chemical intercalation.

[3] = 5 mg/kg i.v. weekly x4, day 23, reference interval 0.2–0.5
[4] = 5 mg/kg i.v. weekly x4, day 23, reference interval 13–39
[5] = 5 mg/kg i.v. weekly x4, day 23, reference interval 63–227
[6] = 5 mg/kg i.v. weekly x4, day 23, reference interval 853–1951
[7] = 5 mg/kg i.v. weekly x4, day of sacrifice (day 23)
[8] = 2.11 mg/kg i.v. weekly x4, day 23

Q: Which “reduction in cell viability” value (SK-OV-3; SK-OV-3, 0.625 μM) does the source give for `FC(F)C(F)(F)COCc1ccnc(-c2cc(COCC(F)(F)C(F)F)ccn2)c1.[Cl][Pt][Cl]` [TFBPC] here?
A: Its value is 29%.

Q: What about the “reduction in cell viability” value (SK-OV-3; SK-OV-3, 1.23 μM) of the same compound?
A: The value was 54%.

Q: What about the “reduction in cell viability” value (SK-OV-3; SK-OV-3, 2.5 μM) of the same compound?
A: Its value is 78%.

Q: And the IC50 (SK-OV-3)?
A: The IC50 was 1.92 µM.

Q: What about the “DNA content in sub G1” value (MDA-MB-231 cells; MDA-MB-231, 2.5 μM) of the same compound?
A: The value was 14.8%.

Q: And the “DNA content in sub G1” value (MDA-MB-231 cells; MDA-MB-231, 5 μM)?
A: The value was 23.14%.

Q: What about the “DNA content in sub G1” value (MDA-MB-231 cells; MDA-MB-231, 10 μM) of the same compound?
A: The value was 27.15%.

Q: And the Kidney ([1]; 5 mg/kg i.v. weekly x4, day 23)?
A: Its Kidney is 0.36 ± 0.02 g.

Q: What about the Liver ([1]; 5 mg/kg i.v. weekly x4, day 23) of the same compound?
A: Its Liver is 1.58 ± 0.11 g.

Q: What about the Lung ([1]; 5 mg/kg i.v. weekly x4, day 23) of the same compound?
A: Its Lung is 0.24 ± 0.02 g.

Q: And the Spleen ([1]; 5 mg/kg i.v. weekly x4, day 23)?
A: The Spleen was 0.30 ± 0.05 g.

Q: And the CREA [1, 3]?
A: The CREA was 0.10 ± 0.12 mg/dL.

Q: What about the Albumin ([1]; 5 mg/kg i.v. weekly x4, day 23, reference interval 3.0–3.9) of the same compound?
A: Its Albumin is 2.93 ± 0.40 g/dL.

Q: And the Total protein ([1]; 5 mg/kg i.v. weekly x4, day 23, reference interval 4.5–5.5)?
A: Its Total protein is 4.6 ± 0.32 g/dL.

Q: What about the RBC ([1]; 5 mg/kg i.v. weekly x4, day 23, reference interval 7.75–9.61) of the same compound?
A: The RBC was 6.97 ± 0.58 10^6/µL.

Q: And the HGB ([1]; 5 mg/kg i.v. weekly x4, day 23, reference interval 12.20–13.90)?
A: Its HGB is 11.8 ± 0.56 g/dL.

Q: What about the ALT [1, 4] of the same compound?
A: Its ALT is 14.75 ± 4.50 U/L.

Q: What about the AST [1, 5] of the same compound?
A: The AST was 131.75 ± 31.70 U/L.

Q: What about the PLT [1, 6] of the same compound?
A: Its PLT is 872.75 ± 81.04 10^3/µL.

Q: What about the Body weight [1, 7] of the same compound?
A: Its Body weight is 25.72 ± 1.22 g.

Q: What about the “average tumor volume and weight compared among groups” value ([2]; 5 mg/kg i.v. weekly x4, day 23) of the same compound?
A: The value was “smallest size in volume”.

Q: And the “change in UV-Vis absorption spectrum of ct-DNA at 260 nm” value (calf thymus DNA (ct-DNA))?
A: The value was “hyperchromicity profile”.

Q: Which IC50 (SK-OV-3) does the source give for `N.N.[Cl][Pt][Cl]` [CDDP, Cis-diamineplatinum(II) dichloride] here?
A: The IC50 was 41 µM.

Q: What about the “DNA content in S phase” value (MDA-MB-231 cells; MDA-MB-231, 2.5 μM) of the same compound?
A: Its value is 26.8%.

Q: And the “DNA content in S phase” value (MDA-MB-231 cells; MDA-MB-231, 5 μM)?
A: Its value is 32.27%.

Q: And the “DNA content in S phase” value (MDA-MB-231 cells; MDA-MB-231, 10 μM)?
A: The value was 39.65%.

Q: What about the Kidney [1, 8] of the same compound?
A: Its Kidney is 0.33 ± 0.03 g.

Q: And the Liver [1, 8]?
A: Its Liver is 1.51 ± 0.12 g.

Q: What about the Lung [1, 8] of the same compound?
A: Its Lung is 0.23 ± 0.01 g.

Q: And the Spleen [1, 8]?
A: Its Spleen is 0.22 ± 0.07 g.

Q: What about the CREA ([1]; 2.11 mg/kg i.v. weekly x4, day 23, reference interval 0.2–0.5) of the same compound?
A: The CREA was 0.20 ± 0.00 mg/dL.

Q: What about the WBC ([1]; 2.11 mg/kg i.v. weekly x4, day 23, reference interval 4–10.9) of the same compound?
A: The WBC was 6.09 ± 1.32 * 10^3/µL.

Q: And the RBC ([1]; 2.11 mg/kg i.v. weekly x4, day 23, reference interval 7.75–9.61)?
A: Its RBC is 7.41 ± 0.51 10^6/µL.

Q: What about the ALT ([1]; 2.11 mg/kg i.v. weekly x4, day 23, reference interval 13–39) of the same compound?
A: Its ALT is 14.00 ± 4.90 U/L.

Q: And the AST ([1]; 2.11 mg/kg i.v. weekly x4, day 23, reference interval 63–227)?
A: The AST was 207.00 ± 101.18 U/L.

Q: What about the PLT ([1]; 2.11 mg/kg i.v. weekly x4, day 23, reference interval 853–1951) of the same compound?
A: Its PLT is 946.75 ± 150.28 10^3/µL.

Q: What about the Body weight ([1]; 2.11 mg/kg i.v. weekly x4, day of sacrifice (day 23)) of the same compound?
A: The Body weight was 24.06 ± 2.18 g.

Q: What about the Heart ([1]; 5 mg/kg i.v. weekly x4, day 23) of the same compound?
A: The Heart was 0.11 ± 0.02 g.

Q: What about the Kidney ([1]; 5 mg/kg i.v. weekly x4, day 23) of the same compound?
A: The Kidney was 0.35 ± 0.04 g.

Q: What about the Liver ([1]; 5 mg/kg i.v. weekly x4, day 23) of the same compound?
A: Its Liver is 1.63 ± 0.22 g.

Q: And the Lung ([1]; 5 mg/kg i.v. weekly x4, day 23)?
A: Its Lung is 0.23 ± 0.03 g.

Q: What about the Spleen ([1]; 5 mg/kg i.v. weekly x4, day 23) of the same compound?
A: The Spleen was 0.17 ± 0.04 g.

Q: What about the CREA [1, 3] of the same compound?
A: Its CREA is 0.15 ± 0.10 mg/dL.

Q: What about the ALT [1, 4] of the same compound?
A: Its ALT is 13.00 ± 3.27 U/L.

Q: And the AST [1, 5]?
A: Its AST is 137.00 ± 34.79 U/L.

Q: And the PLT [1, 6]?
A: The PLT was 877.00 ± 170.99 10^3/µL.

Q: What about the Body weight [1, 7] of the same compound?
A: Its Body weight is 25.48 ± 0.98 g.

Q: What about the “average tumor volume vs. control” value ([2]; 2.11 or 5 mg/kg i.v. weekly x4) of the same compound?
A: Its value is “no statistical difference”.

Q: And the “change in UV-Vis absorption spectrum of ct-DNA at 260 nm” value (calf thymus DNA (ct-DNA))?
A: Its value is “hypochromic profile”.
